Results taken from patent US9126957B2, “Selective glycosidase inhibitors and uses thereof” (MERCK SHARP & DOHME CORP., priority 2011, dated 2015).

Molecular target: human O-GlcNAcase (Homo sapiens (Human), UniProt O60502)
Assay: Fluorescence-based hOGA assay for determination of KI values for inhibition of O-GlcNAcase activity
Assay type: biochemical
Conditions: purified human O-GlcNAcase, 4-Methylumbelliferyl N-acetyl-β-D-glucosaminide substrate, pH 7.0, Cheng-Prusoff
Experimental: Assay for determination of KI values for inhibition of O-GlcNAcase activity Experimental procedure for kinetic analyses
Enzymatic reactions are carried out in a reaction containing 50 mM NaH2PO4, 100 mM NaCl and 0.1% BSA (pH 7.0) using 2 mM 4-Methylumbelliferyl N-acetyl-β-D-glucosaminide dihydrate (Sigma M2133) dissolved in ddH2O, as a substrate. The amount of purified human O-GlcNAcase enzyme used in the reaction is 0.7 nM. Test compound of varying concentrations is added to the enzyme prior to initiation of the reaction. The reaction is performed at room temperature in a 96-well plate and is initiated with the addition of substrate. The production of fluorescent product is measured every 60 sec for 45 min with a Tecan Infinite M200 plate-reader with excitation at 355 nm and emission detected at […], with 4-Methylumbelliferone (Sigma M1381) used to produce a standard curve. The slope of product production is determined for each concentration of compound tested and plotted, using standard curve fitting algorithms for sigmoidal dose response curves. The values for a four parameter logistic curve fit of the data are determined.
KI values are determined using the Cheng-Prusoff equation; the Km of O-GlcNacase for substrate is 0.2 mM.

human O-GlcNAcase, sequence (O60502 whole entry): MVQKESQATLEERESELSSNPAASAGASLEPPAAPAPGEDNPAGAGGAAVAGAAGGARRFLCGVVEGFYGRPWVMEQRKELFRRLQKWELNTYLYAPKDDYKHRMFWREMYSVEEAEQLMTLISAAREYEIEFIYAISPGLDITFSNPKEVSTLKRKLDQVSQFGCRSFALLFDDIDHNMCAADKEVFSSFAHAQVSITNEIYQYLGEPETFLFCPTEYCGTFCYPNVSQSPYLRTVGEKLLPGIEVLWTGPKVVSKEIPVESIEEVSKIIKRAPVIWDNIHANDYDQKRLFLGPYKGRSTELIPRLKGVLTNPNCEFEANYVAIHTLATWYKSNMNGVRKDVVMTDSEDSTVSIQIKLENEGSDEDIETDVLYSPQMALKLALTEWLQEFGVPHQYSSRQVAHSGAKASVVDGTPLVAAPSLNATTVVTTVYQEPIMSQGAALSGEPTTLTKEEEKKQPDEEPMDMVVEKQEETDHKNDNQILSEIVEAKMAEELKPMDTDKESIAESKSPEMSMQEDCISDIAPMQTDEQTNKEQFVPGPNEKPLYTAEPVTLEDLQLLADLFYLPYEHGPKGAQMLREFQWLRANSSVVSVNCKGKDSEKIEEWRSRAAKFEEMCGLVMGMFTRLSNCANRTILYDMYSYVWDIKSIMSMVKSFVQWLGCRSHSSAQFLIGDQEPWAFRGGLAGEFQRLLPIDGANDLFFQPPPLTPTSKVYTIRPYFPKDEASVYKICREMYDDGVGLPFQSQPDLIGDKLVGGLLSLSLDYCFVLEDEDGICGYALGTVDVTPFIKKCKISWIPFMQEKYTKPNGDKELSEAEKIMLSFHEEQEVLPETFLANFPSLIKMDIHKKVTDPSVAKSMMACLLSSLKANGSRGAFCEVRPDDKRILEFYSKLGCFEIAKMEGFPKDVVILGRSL

SMILES	Ki
C[C@@H](O)[C@@H]1C[C@H]2OC(N(C)C)=N[C@H]2[C@H](O)[C@H]1O (single isomer, unassigned) [Example 4]	437 nM
C[C@@H](O)[C@H]1C[C@@H]2OC(N(C)C)=N[C@@H]2[C@@H](O)[C@@H]1O [Example 1A, (3aR,4R,5R,6R,7aS)-2-(Dimethylamino)-6-((R)-1-hydroxyethyl)-3a,4,5,6,7,7a-hexahydrobenzo[d]oxazole-4,5-diol]	4.5 nM
C[C@H](O)[C@H]1C[C@@H]2OC(N(C)C)=N[C@@H]2[C@@H](O)[C@@H]1O [Example 2, (3aR,4R,5R,6R,7aS)-2-(Dimethylamino)-6-((S)-1-hydroxyethyl)-3a,4,5,6,7,7a-hexahydro-benzo[d]oxazole-4,5-diol]	0.26 nM
CN(C)C1=N[C@@H]2[C@@H](O)[C@H](O)[C@@H](C(C)(C)O)C[C@@H]2O1 [Example 3, (3aR,4R,5R,6S,7aS)-2-(Dimethylamino)-6-(2-hydroxypropan-2-yl)-3a,4,5,6,7,7a-hexahydro-benzo[d]oxazole-4,5-diol]	54 nM
CCCNC1=N[C@@H]2[C@@H](O)[C@H](O)[C@@H]([C@H](C)O)C[C@@H]2O1 [Example 5, (3aR,4R,5R,6R,7aS)-6-((S)-1-hydroxyethyl)-2-(propylamino)-3a,4,5,6,7,7a-hexahydrobenzo[d] oxazole-4,5-diol]	7.1 nM
CNC1=N[C@@H]2[C@@H](O)[C@H](O)[C@@H]([C@H](C)O)C[C@@H]2O1 [Example 6, (3aR,4R,5R,6R,7aS)-6-((S)-1-hydroxyethyl)-2-(methylamino)-3a,4,5,6,7,7a-hexahydrobenzo[d] oxazole-4,5-diol]	0.26 nM
CCNC1=N[C@@H]2[C@@H](O)[C@H](O)[C@@H](C(C)(C)O)C[C@@H]2O1 [Example 7, (3aR,4R,5R, 6S,7aS)-2-(ethylamino)-6-(2-hydroxy-propan-2-yl)-3a,4,5,6,7,7a-hexahydro-benzo[d] oxazole-4,5-diol]	93 nM
CCCNC1=N[C@@H]2[C@@H](O)[C@H](O)[C@@H](C(C)(C)O)C[C@@H]2O1 [Example 8, (3aR,4R,5R, 6S,7aS)-6-(2-hydroxy-propan-2-yl)-2-(propylamino)-3a,4,5,6,7,7a-hexahydro-benzo[d] oxazole-4,5-diol]	1670 nM
C[C@@H](O)[C@H]1C[C@@H]2SC(N(C)C)=N[C@@H]2[C@@H](O)[C@@H]1O [Example 9]	14 nM
C[C@H](O)[C@H]1C[C@@H]2SC(N(C)C)=N[C@@H]2[C@@H](O)[C@@H]1O [Example 10, (3aR,4R,5R,6R,7aS)-2-(dimethylamino)-6-((S)-1-hydroxyethyl)-3a,4,5,6,7,7a-hexahydrobenzo[d]thiazole-4,5-diol]	0.14 nM
